According to PubChem BioAssay (NCI):
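Step 1: Grow cells in 96-well plates. Step 2: Expose to compound for 48 hours at 5 concentrations. Step 3: Interpolate endpoints linearly; if unreached, use highest concentration. Here, GI50 denotes the concentration required for 50% inhibition of growth. TGI marks complete inhibition of growth.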

What was measured:
Experiment in all cases: NCI anticancer screen, dose series, 48 h
[1] = system: HCT-15 colon
[2] = system: NCI-H226 lung
[3] = system: HCC-2998 colon
[4] = system: SNB-19 CNS
[5] = system: NCI/ADR-RES ovarian
[6] = system: A549 NSCLC
[7] = system: RPMI-8226 leukemia
[8] = system: NCI-H460 lung
[9] = system: OVCAR-5 ovarian
[10] = system: SK-MEL-28 melanoma
[11] = system: CAKI-1 renal

Structure (SMILES) | TGI [1] [µM] | TGI [2] [µM] | TGI [3] [µM] | TGI [4] [µM] | TGI [5] [µM] | TGI [6] [µM] | TGI [7] [µM] | TGI [8] [µM] | TGI [9] [µM] | TGI [10] [µM] | TGI [11] [µM] | GI50 [1] [µM] | GI50 [2] [µM] | GI50 [3] [µM] | GI50 [4] [µM] | GI50 [5] [µM] | GI50 [11] [µM] | GI50 [7] [µM] | GI50 [9] [µM] | GI50 [6] [µM]
CSc1nc2c(ncn2C2OC(CO)C(O)C(O)C2O)c(=O)n1C (stereo not drawn) | > 100 | > 100 | > 100 | > 100 | > 100 | > 100 | > 100 | > 100 | > 100 | > 100 | – | – | – | – | – | – | – | – | – | –
Nc1nc2cc(COc3ccc(C(=O)O)cc3)ccc2nc1-c1ccccc1 | > 10 | > 10 | > 10 | > 10 | – | > 10 | > 10 | > 10 | > 10 | > 10 | > 10 | – | – | – | – | – | – | – | – | –
C=CCn1c(C)nc2cc(Nc3nc(N4CCCC4)nc4nc[nH]c34)ccc21 | > 100 | > 100 | > 100 | > 100 | > 100 | – | > 100 | – | > 100 | – | > 100 | > 100 | > 100 | > 100 | > 100 | > 100 | > 100 | > 100 | > 100 | –
COc1cc(C2c3cc4c(cc3[C@@H](Nc3cnc5ccccc5c3)C3COC(=O)[C@H]23)OCO4)cc(OC)c1O (stereo partly drawn) | 1.31 | 1.23 | 2.24 | 9.53 | 7.93 | 0.789 | 1.9 | 0.397 | 2.25 | 3.85 | 1.78 | – | – | – | – | – | – | – | – | –
O=C(N/N=C/c1cc(Cl)cc(Cl)c1[O-])c1ccccc1O.O=C(N/N=C/c1cc(Cl)cc(Cl)c1[O-])c1ccccc1O.[Mn+2] | 14.1 | 6.59 | 13.5 | 16.1 | – | 11.6 | – | – | 17.4 | 12.1 | 4.33 | – | – | – | – | – | – | – | – | 0.377
C=C1C(=O)OC2/C=C(CO)/C=C\C3OC3(C)CC(OC(=O)/C(C)=C/COC(C)=O)C12 (stereo not drawn) | 4.27 | 27.7 | 28.8 | 25.1 | 15.8 | 28.5 | 4.33 | 15.3 | 26.9 | 3.26 | 10.9 | – | – | – | – | – | – | – | – | –
O=C1Nc2ccccc2C1(O)Cc1ccccn1 (stereo not drawn) | > 100 | > 100 | > 100 | > 100 | > 100 | > 100 | > 100 | > 100 | > 100 | > 100 | > 100 | – | – | – | – | – | – | – | – | –
C=C1C(=O)OC2/C=C(\CO)C3OC3C3OC3(C)CC(OC(=O)/C(=C/C)COC(C)=O)C12 (stereo not drawn) | 6.47 | 40.8 | 37.1 | 28.6 | 41.8 | 36.9 | > 100 | 28.4 | 28.7 | 3.72 | 4.67 | – | – | – | – | – | – | – | – | –
O=c1c2cc([N+](=O)[O-])ccc2[nH]n1Cc1ccccc1Cl | > 100 | > 100 | > 100 | > 100 | > 100 | > 100 | 95.2 | > 100 | > 100 | > 100 | > 100 | – | – | – | – | – | – | – | – | –
O=C1Sc2sc(=S)sc2SC1c1ccccc1 (stereo not drawn) | 36.8 | > 100 | > 100 | > 100 | > 100 | > 100 | > 100 | > 100 | > 100 | > 64.8 | > 100 | – | – | – | – | – | – | – | – | –
Cc1ccnn1CCc1ccc(Cl)cc1Cl | > 100 | – | – | > 100 | > 100 | > 100 | 38.2 | > 100 | > 100 | > 100 | > 100 | – | – | – | – | – | – | – | – | –
COc1cccc(/C=N/[N+](C)(C)C)c1O | > 10 | > 10 | > 10 | > 10 | > 10 | > 10 | > 10 | > 10 | > 10 | > 10 | > 10 | – | – | – | – | – | – | – | – | –
CC1=CC2=C(C=O)C(=O)[C@](C)(O)[C@@H](O)C2=CO1 | > 100 | 65.4 | > 61.5 | 5.5 | > 100 | > 90.8 | 47.1 | > 100 | > 100 | > 78.1 | > 100 | – | – | – | – | – | – | – | – | –
CS(C)(=O)=Nn1c(=O)n2n(c1=O)[C@H]1CC[C@@H]2C1 | > 100 | > 100 | – | > 100 | > 100 | > 100 | > 100 | > 100 | > 100 | > 100 | > 100 | – | – | – | – | – | – | – | – | –
Cc1c2cnccc2c(C)c2c1c1ccccc1n2CCCCCCCl | > 50 | > 46.7 | > 50 | > 50 | > 50 | > 50 | > 48.9 | > 50 | > 50 | > 50 | > 50 | – | – | – | – | – | – | – | – | –
COc1ccc2[nH]c(=O)cc(C)c2c1[N+](=O)[O-] | > 100 | > 100 | > 100 | > 100 | – | > 100 | > 100 | > 100 | > 100 | > 100 | > 100 | – | – | – | – | – | – | – | – | –
O=C(O)C(C1NCCS1)N1C(=O)c2ccccc2C1=O (stereo not drawn) | > 100 | > 100 | – | > 100 | > 100 | > 100 | > 100 | > 100 | > 100 | > 100 | > 100 | – | – | – | – | – | – | – | – | –
